Measured values: PubChem BioAssay (NCI)
Where “and” joins values, the source holds several entries; their conditions need not be identical. Identical values can stand only once.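 The compound was tested at five concentrations on cells cultured in 96-well plates, with a 48-hour exposure period. GI50 = concentration required for 50% inhibition of growth. TGI marks complete inhibition of growth.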

Key:
Assay in all cases: NCI tumour cell line growth inhibition, 48 h
BT-549 breast = tested on: BT-549 breast
MDA-N = tested on: MDA-N
MDA-MB-231 breast = tested on: MDA-MB-231 breast
SK-OV-3 ovarian = tested on: SK-OV-3 ovarian
UACC-257 melanoma = tested on: UACC-257 melanoma
SR leukemia = tested on: SR leukemia
LXFL 529 NSCLC = tested on: LXFL 529 NSCLC
XF 498 CNS = tested on: XF 498 CNS
DMS 114 small cell lung = tested on: DMS 114 small cell lung
DMS 273 small cell lung = tested on: DMS 273 small cell lung
DLD-1 colon = tested on: DLD-1 colon
KM20L2 colon = tested on: KM20L2 colon
SN12K1 renal = tested on: SN12K1 renal
P388 leukemia = tested on: P388 leukemia
P388/ADR leukemia = tested on: P388/ADR leukemia
SNB-78 CNS = tested on: SNB-78 CNS

| SMILES | TGI (BT-549 breast) [µM] | TGI (MDA-N) [µM] | TGI (MDA-MB-231 breast) [µM] | TGI (SK-OV-3 ovarian) | TGI (UACC-257 melanoma) | TGI (SR leukemia) [µM] | TGI (KM20L2 colon) [µM] | other results |
| --- | --- | --- | --- | --- | --- | --- | --- | --- |
| CC1CC[C@@]2(OC1)OC1CC3C4CCC5C[C@@H](OC6OC(CO)C(OC7OC(CO)C(O)C(OC8OC(CO)C(O)C(OC9OC(CO)C(O)C(O)C9O)C8O)C7OC7OC(CO)C(O)C(O)C7O)C(O)C6O)[C@H](O)C[C@]5(C)C4CC[C@]3(C)C1[C@@H]2C (some centres undefined) | > 80.5 | > 80.5 | > 80.5 | > 80.5 µM | > 80.5 µM |  |  |  |
| O=S(=O)(O)c1ccc(N=Nc2c(O)ccc3cc(Br)ccc23)cc1 | > 100 | > 100 | > 100 | > 100 µM | > 100 µM | > 100 |  |  |
| OC1CCOc2ccccc21 (centres undefined) |  |  |  | > 100 µM |  | > 100 | > 100 | TGI (LXFL 529 NSCLC): > 100 µM; TGI (XF 498 CNS): > 100 µM; TGI (DMS 114 small cell lung): > 100 µM; TGI (DMS 273 small cell lung): > 100 µM; TGI (DLD-1 colon): > 100 µM |
| CNC(=O)SCC(N)C(=O)O (centres undefined) |  |  |  | > 100 µM | > 100 µM |  | > 100 | TGI (SN12K1 renal): > 100 µM; TGI (P388 leukemia): 39.1 µM; TGI (XF 498 CNS): > 100 µM; TGI (P388/ADR leukemia): 58 µM; TGI (DMS 114 small cell lung): > 100 µM; TGI (DMS 273 small cell lung): > 100 µM; TGI (SNB-78 CNS): > 100 µM; TGI (DLD-1 colon): > 100 µM |
| COc1cccc(/C=N/[N-]C(N)=O)c1[O-].[Ni+2].[OH3+].c1ccc(-c2ccccn2)nc1 |  |  |  | > 100 µM | > 100 µM |  | > 100 |  |
| CC(=O)OC/C=C\Cn1nc(Br)c(=O)[nH]c1=O | 22.2 | 32 | 43.4 |  | 31.8 µM | 15.6 |  |  |
| C[C@]12CC/C(=N\O)C=C1CC[C@@H]1[C@@H]2CC[C@]2(C)C(=N/O)/C(=C/c3ccc([N+](=O)[O-])cc3)C[C@@H]12 | 14.3 | 85 | 29.6 | > 100 µM | 33.9 µM | 9.26 |  |  |
| CCOC(=O)c1c(Cl)nc2ccccc2c1N=[N+]=[N-] | 30.7 | 44.2 | 30.1 | > 100 µM | 53.4 µM | > 100 |  |  |
| C1=C(c2ccccc2)Nc2nnnn2C1c1ccccc1 (centres undefined) |  | > 100 | > 100 | > 100 µM | > 100 µM | 51.3 |  |  |
| COC(=O)c1c(O)ccc2c1c1c(n2Cc2ccc(Cl)cc2Cl)C(=O)c2ccccc2C1=O | 26.1 | 29.5 | 23.5 | 27.6 µM | 30.1 µM | 12.3 |  |  |
| CC(=O)O[C@H]1/C(=C/c2ccncc2)C[C@H]2[C@@H]3CC=C4C[C@@H](N5CCCC5)CC[C@]4(C)[C@H]3CC[C@]12C | 35.8 |  | 35 | 37 µM | 6.42 µM | 21.6 |  |  |
| CC1CCC2(C(=O)O)CCC3(C)C(=CCC4C5(C)CCC(O)C(C)(C)C5CCC43C)C2C1C (centres undefined) | 40.5 | 28.2 | 26.2 | 27 µM and 35.1 µM | 13.7 µM and 32.6 µM | 59.8 | 17.5 | TGI (SN12K1 renal): 12.9 µM; TGI (P388 leukemia): 9.48 µM; TGI (XF 498 CNS): 11.7 µM; TGI (P388/ADR leukemia): 17.8 µM; TGI (DMS 114 small cell lung): 21.5 µM; TGI (DMS 273 small cell lung): 22 µM; TGI (SNB-78 CNS): 29.3 µM; TGI (DLD-1 colon): 17 µM; GI50 (UACC-257 melanoma): 4.8 µM and 12.1 µM |
| O=C(N/N=C/c1cc(Cl)cc(Cl)c1[O-])c1ccccc1O.O=C(N/N=C/c1cc(Cl)cc(Cl)c1[O-])c1ccccc1O.[Zn+2] |  |  |  | 11.8 µM | 11.8 µM | 1.55 | 5.17 | GI50 (KM20L2 colon): 2.05 µM |
| CCC(=O)c1ccc2[nH]c3c(C)c4c(=O)cc(C)[nH]c4c(C)c3c2c1 | > 100 | > 100 | > 100 |  | > 100 µM | > 100 |  |  |
| C/C=C/C1=CC(=O)C(O)C1O (centres undefined) |  |  |  | 130 µM | 97.4 µM |  | > 80.9 | TGI (SN12K1 renal): 84.2 µM; TGI (P388 leukemia): 141 µM; TGI (XF 498 CNS): 45.6 µM; TGI (P388/ADR leukemia): 113 µM; TGI (DMS 114 small cell lung): 72.5 µM; TGI (DMS 273 small cell lung): 98.9 µM; TGI (SNB-78 CNS): 173 µM; TGI (DLD-1 colon): 122 µM |
| COc1ccc(/C(O)=C/c2nc3cccnc3nc2/C=C(\O)c2ccc(OC)cc2)cc1 | 53.5 | > 100 | 31.2 | 31.7 µM | > 100 µM | 51.2 |  |  |
| COc1cc(OC)c(/C=C\c2cc(/C=C/c3c(OC)cc(OC)cc3OC)c3ccccc3[n+]2C)c(OC)c1 | > 24.7 | 8.19 | 10.2 | > 48 µM | 12.4 µM |  |  |  |
| Cc1ccc(-c2cc(C(F)(F)F)nn2-c2ccc(S(N)(=O)=O)cc2)cc1 | 32.1 | 30.9 | > 54.2 | > 57 µM | > 58.3 µM | 45.3 |  |  |
| S=C1CC(c2ccccc2)Sc2ccccc2N1 (centres undefined) | > 100 | > 100 | > 100 | > 100 µM | > 100 µM | > 100 |  |  |
| [O-][n+]1ccccc1S | > 100 |  | > 100 | > 100 µM | 64.4 µM |  |  | GI50 (BT-549 breast): 27.1 µM; GI50 (MDA-MB-231 breast): 6.73 µM |
| CC1(C)Cc2c(C#N)c(N)c3c(c2CO1)C(=O)OC3=O |  |  |  | > 100 µM |  | > 100 | > 100 | TGI (LXFL 529 NSCLC): > 100 µM; TGI (XF 498 CNS): > 100 µM; TGI (DMS 114 small cell lung): > 100 µM; TGI (DMS 273 small cell lung): > 100 µM |
| CC(=O)NC(CCC(=O)C=[N+]=N)C(=O)O (centres undefined) | > 100 | > 100 | > 100 | > 100 µM | > 100 µM | > 100 |  |  |
| Cc1[nH]nc(N)c1C(N)=O |  |  |  | > 100 µM | > 100 µM |  | > 100 | TGI (LXFL 529 NSCLC): > 100 µM; TGI (XF 498 CNS): > 100 µM; TGI (DMS 114 small cell lung): > 100 µM; TGI (DMS 273 small cell lung): > 100 µM; TGI (SNB-78 CNS): > 100 µM; TGI (DLD-1 colon): > 100 µM |
